Laboratory results as given in patent US20230391842A1, “RETRO-INVERSO PEPTIDES” (Herantis Pharma OYJ, priority 2019, published 2023).
Positions of bridges follow the written chain, without caps; N, C: chain ends. Non-standard residues stand in square brackets, D forms with d. Residues, ends and D or L forms follow the SMILES beside them. No end group written: not given here.

Tests used:
[1] = test system: dopaminergic TH-positive neurons injured with MPP+; assay: Neuroprotective effect on dopaminergic TH-positive neurons injured with MPP+ (primary mesencephalic culture); assay type: cell-based, rat; settings: MPP+ 4 μM, 48 h; for potency of retro-inverso peptides relative to their parent compounds and to full-length CDNF protein: stated for 'most cases'
Procedure: Neuroprotective effects of compounds 1-20 (SEQ ID NO:s 1-20, parent and retro-inverso) were tested in an in vitro model in which primary cultures of rat embryonic mesencephalic neurons were stressed with MPP+, the active metabolite of neurotoxin 1-methyl-4-phenyl-1,2,3,6-tetrahydropyridine (MPTP). MPP+ kills dopaminergic (TH-positive) neurons via a variety of toxic mechanisms, including mitochondrial dysfunction, generation of peroxynitrite, oxidative stress, ER stress and induction of apoptosis.
Rat dopaminergic neurons were cultured as described by Visanji et al., 2008. Briefly, the midbrains obtained from 15-day-old rat embryos (Janvier, France) were dissected, and the ventral portion of the mesencephalic flexure, a region of the developing brain rich in dopaminergic neurons, was used for the cell preparations. The midbrain cells were dissociated by trypsinization for 20 min at 37° C. […] The reaction was stopped by adding Dulbecco's modified Eagle's medium (DMEM) containing DNAase I grade II (0.5 mg/mL) and 10% of fetal calf serum (FCS). Cells were then mechanically dissociated by 3 passages through a 10 ml pipette. Cells were then centrifuged at 180×g for 10 min at +4° C. on a layer of BSA (3.5%) in L15 medium. The cell pellets was re-suspended in a defined culture serum-free medium consisting of Neurobasal (Invitrogen) supplemented with B27 (2%), L-glutamine (2 mM) and 2% of PS solution and 10 ng/ml of Brain-derived neurotrophic factor (BDNF) and 1 ng/mL of Glial-Derived Neurotrophic Factor (GDNF). […] The cells were seeded at a density of 40 000 cells/well in 96 well-plates (pre-coated with poly-L-lysine) and maintained in a humidified incubator at 37° C. in 5% CO2/95% air atmosphere. Half of the medium was changed every 2 days with fresh medium. On 96-wells plates, only 60 wells are used. To avoid any edge effect, the first and last lines and columns were not be used for culture and were filled with sterile water.
On day 6 of culture, CDNF or the compounds 1-20 (SEQ ID NO:s 1-20, parent and retro-inverso), were dissolved in culture medium and then pre-incubated with mesencephalic neurons for 4 hours before the MPP+ application. Four hours after the preincubation of the compounds, MPP+ was added to a final concentration of 4 μM, diluted in control medium still in presence of compounds for 48 h.
48 hours after intoxication, the cells were fixed by a solution of 4% paraformaldehyde in PBS, pH 7.3 for 20 min at room temperature. The cells were washed twice in PBS, and then permeabilized and non-specific sites were blocked with a solution of PBS containing 0.1% of saponin and 1% FCS for 15 min at room temperature. Next, the cells were incubated with (a) a monoclonal antibody anti-Tyrosine Hydroxylase (TH) produced in mouse at dilution of 1:1 0000 and with (b) a polyclonal antibody anti-alpha-synuclein (aSyn) antibody produced in rabbit at dilution of 1:400 in PBS containing 1% FCS, 0.1% saponin, for 2 h at room temperature.
48 hours after intoxication, the cell culture supernatant was removed, and the cells fixed by a solution of 4% paraformaldehyde in PBS, pH 7.3 for 20 min at room temperature. The cells were washed twice in PBS, and then permeabilized and non-specific sites were blocked with a solution of PBS containing 0.1% of saponin and 1% FCS for 15 min at room temperature. Then, the cells were incubated with a) a monoclonal Anti-Tyrosine Hydroxylase (TH) antibody produced in mouse at dilution of 1:10000 in PBS containing 1% FCS, 0.1% saponin, for 2 hours at room temperature, and b) a polyclonal anti-postsynaptic density protein-95 (PSD-95) antibody produced in rabbit at dilution of 1:200 in PBS containing 1% FCS, 0.1% saponin, for 2 h at room temperature. This antibody stains specifically synapses.
For each condition, pictures representing the whole well area were automatically acquired using ImageXpress (Molecular device) at 10× (20 pictures, for TH and a-syn) or at 40× magnification (60 pictures, for TH and PSD-95). […]

[2] = test system: 3D in vitro model of blood brain barrier; assay: Permeation in a 3D in vitro model of blood-brain barrier; settings: 500 nM, 2 h
[3] = test system: rat hepatocytes; assay: In vitro metabolic stability in rat hepatocytes; settings: 1 μM, 37° C., 0-60 min
[4] = In vivo pharmacokinetics after intravenous administration to rats; settings: rat, 5 mg/kg intravenous bolus injection, male Sprague-Dawley rats, plasma; for clearance: read-out: CI
Procedure: Test compounds were intravenously (i.v.) administered to male Spraque-Dawley rats (about six weeks old, n=3 per compound) at 5 mg/kg. Blood samples were collected from jugular vein through implanted in-dwelling catheters (250 μl blood) into labelled polypropylene tubes containing anticoagulant (heparin) at 2 min, 5 min, 15 min, 30 min, 1 h, 2 h and 4 h after compound administration and held on wet ice for a maximum of 30 minutes. The blood samples were centrifuged for plasma separation (4° C., 21100 G, 5 min). Tolbutamide 500 ng/ml with 10% TFA in acetonitrile or in MeCN was used as an internal standard solution. The standard samples were prepared into rat plasma by spiking the matrix into concentrations 2-10 000 ng/ml of the analyte, respectively, and otherwise treated as the samples. To 50 μl aliquots of sample plasma was added 200 μl of internal standard. Samples were mixed (150 rpm, 15 min) and centrifugated (3000 rpm, 15 min). The analytical method was optimized for reaction monitoring chromatographic (peak shape & retention) shifts and mass spectrometric properties (ionization efficiency, MS/MS detection). Supernatants were is analyzed by UHPLC-TOF mass spectrometry using electrospray ionization. […]

[5] = biological target: nucleotide-binding domain of GRP78 (GRP78-NBD); assay: Binding to GRP78-NBD Kd (μM)
Text: Table printed on a drawing sheet, FIG. 5B
Head of the field: Binding to GRP78-NBD Kd (μM)
GRP78-NBD is shown in a to translucent surface model along with its cartoon trace. The Cys-Cys bond in compound 14 (SEQ ID NO: 14) is shown in sticks.
The binding affinities are obtained by microscale thermophoresis-based cell free assay.
GSK2606414 was used to inhibit PERK signaling and KIRA6 to inhibit IRE1alpha signaling. * p<0.05, ** p<0.01, *** p<0.001, **** p<0.0001 one-way ANOVA test with post-hoc Fisher's LSD test for pairwise comparison vs MPP+ negative control. #p<0.05, ##p<0.01, ###p<0.001, ####p<0.0001 one-way ANOVA test with post-hoc Fisher's LSD test for pairwise comparison between effect of compound alone and its combination with UPR signal inhibitor.
Where the first naming reader finds the target: head: Binding to GRP78-NBD Kd (μM)

[6] = test system: human hepatocytes; assay: In vitro metabolic stability in human hepatocytes; settings: 1 μM, 37° C., 0-60 min
[7] = In vitro metabolic stability in rat plasma; assay type: in vitro ADME; settings: 1 μM, 37° C., up to 120 min
Procedure: Metabolic stability of the retro-inverso and native control peptides was studied using rat plasma over the time period of 120 min, with initial test concentration of 1 μM. Samples were analysed using LC/QE-orbitrap-MS. Calculated half-life is based on compound disappearance in rat plasma.
The incubation was terminated by acetonitrile. […] Stock solutions was prepared using 50% DMSO, and the compounds were spiked 1/100 to incubation to have final DMSO content of 0.5%. […] For analysis of compounds 13-14 and 19-20 stock solutions were prepared with PBS, and samples were analyzed by UHPLC-ToF mass spectrometry. Enalapril 1 μM was used as a disappearance rate control.

## CDNF: full-length cerebral dopamine neurotrophic factor protein (rhCDNF), unconventional neurotrophic factor
[1]
  alpha-synuclein (aSyn) aggregates / inclusions in TH-positive neurons: reducing accumulation
  protection of TH-positive neurons, their neurites and synapses from MPP+ toxicity: neuroprotective

## EACARCEE ([dE][dA][dC][dA][dR][dC][dE][dE]; disulfide 3-6) [Compound 18] [listing 1 of 2 here]
[1]
  potency of retro-inverso peptides relative to their parent compounds and to full-length CDNF protein: comparable

## C[C@H](O)[C@@H](N)C(=O)N[C@H](CCCCN)C(=O)N[C@H](CCC(=O)O)C(=O)N[C@H](C)C(=O)N[C@@H]1CSSC[C@H](C(=O)N[C@H](CCC(=O)O)C(=O)N[C@H](CCC(=O)O)C(=O)NCC(=O)O)NC(=O)[C@@H](CCCNC(=N)N)NC(=O)[C@@H](C)NC1=O [Compound 6, TKEACARCEEG]
[2]
  ability to pass through the in vitro blood-brain barrier as compared to parent compound: improved ability to pass
[3]
  stability in rat hepatocytes as compared to parent compound: significantly improved stability
[4]
  AUC(0-inf): 15500 ng·h/mL
  MRT: 29.4 min
  Vd: 0.16 L/kg
  half-life: 24.5 min
  clearance: 5.69 mL/min/kg
[5]
  Kd: 3.86 µM
[6]
  stability in human hepatocytes as compared to parent compound: significantly improved stability
[1]
  potency of retro-inverso peptides relative to their parent compounds and to full-length CDNF protein: comparable

## KEACGKCTEGWDDLIKKLEKVRL ([dK][dE][dA][dC]G[dK][dC][dT][dE]G[dW][dD][dD][dL][dI][dK][dK][dL][dE][dK][dV][dR][dL]; disulfide 4-7) [Compound 4]
[2]
  ability to pass through the in vitro blood-brain barrier as compared to parent compound: improved ability to pass
[3]
  stability in rat hepatocytes as compared to parent compound: significantly improved stability
[6]
  stability in human hepatocytes as compared to parent compound: significantly improved stability
[1]
  potency of retro-inverso peptides relative to their parent compounds and to full-length CDNF protein: comparable

## TKEACAGRCEEG ([dT][dK][dE][dA][dC][dA]G[dR][dC][dE][dE]G; disulfide 5-9) [Compound 10]
[1]
  potency of retro-inverso peptides relative to their parent compounds and to full-length CDNF protein: comparable

## KEACARCEEGWSHLIQKLEAVRM [Compound 2]
[1]
  potency of retro-inverso peptides relative to their parent compounds and to full-length CDNF protein: comparable

## C[C@H](O)[C@@H](NC(=O)[C@H]1CSSC[C@@H](NC(=O)[C@@H](C)NC(=O)[C@@H](CCC(=O)O)NC(=O)[C@@H](CCCCN)NC(=O)[C@H](N)CO)C(=O)NCC(=O)NCC(=O)N[C@H](CCCCN)C(=O)N1)C(=O)N[C@H](CCC(=O)O)C(=O)NCC(=O)O [Compound 12, SKEACGGKCTEG] (H-[dS][dK][dE][dA][dC]GG[dK][dC][dT][dE]G-OH; disulfide 5-9; N-terminus and C-terminus assumed)
[2]
  ability to pass through the in vitro blood-brain barrier as compared to parent compound: improved ability to pass
[4]
  AUC(0-inf): 4310 ng·h/mL
  MRT: 22.9 min
  Vd: 0.45 L/kg
  half-life: 19.7 min
  clearance: 19.5 mL/min/kg

## ETCKGCAE (disulfide 3-6) [Compound 19]
[5]
  Kd: 14.3 µM

## KEACARCEE ([dK][dE][dA][dC][dA][dR][dC][dE][dE]; disulfide 4-7) [Compound 14]
[5]
  Kd: 0.68 µM

## C[C@@H](NC(=O)[C@@H](CCC(=O)O)NC(=O)[C@H](N)CCCCN)C(=O)N[C@@H]1CSSC[C@H](C(=O)N[C@H](CCC(=O)O)C(=O)N[C@H](CCC(=O)O)C(=O)O)NC(=O)[C@@H](CCCNC(=N)N)NC(=O)[C@@H](C)NC1=O [Compound 14, KEACARCEE] (H-[dK][dE][dA][dC][dA][dR][dC][dE][dE]-OH; disulfide 4-7; N-terminus and C-terminus assumed)
[7]
  stability in rat plasma as compared to parent compound: significantly improved stability
[3]
  stability in rat hepatocytes as compared to parent compound: significantly improved stability
[4]
  AUC(0-inf): 7500 ng·h/mL
  MRT: 19.2 min
  Vd: 0.21 L/kg
  half-life: 18.4 min
  clearance: 11.4 mL/min/kg

## EACARCEE ([dE][dA][dC][dA][dR][dC][dE][dE]; disulfide 3-6) [Compound 18] [listing 2 of 2 here]
[5]
  Kd: 1.23 µM

## SKEACGGKCTEG ([dS][dK][dE][dA][dC]GG[dK][dC][dT][dE]G; disulfide 5-9) [Compound 12]
[5]
  Kd: 6.2 µM

## GEECRACAEKT (disulfide 4-7) [Compound 5]
[5]
  Kd: 3.21 µM

## EECRACAE (disulfide 3-6) [Compound 17]
[5]
  Kd: 0.3 µM

## KEACGKCTE ([dK][dE][dA][dC]G[dK][dC][dT][dE]; disulfide 4-7) [Compound 16]
[1]
  potency of retro-inverso peptides relative to their parent compounds and to full-length CDNF protein: comparable
